Drawing on ChEMBL document CHEMBL4308917, “Tripeptide analogues of MG132 as protease inhibitors” (Bioorg Med Chem, 2019), this text covers IC50 and Ratio IC50 for 8 molecules.

Broadly, the IC50 is the concentration that inhibits the measured activity by half.

Assay [1] is described as follows: Inhibition of recombinant ovine lung calpain-2 protease using BODIPY-FL casein as substrate after 10 mins by fluorescence-based assay. Set-up: species or system Ovis aries.
Another assay relates to Plasmodium falciparum. The assay can be described thus: Antiplasmodial activity against Plasmodium falciparum D10 cultured in human O+ erythrocytes after 50 to 60 hrs by ethidium bromide staining-based flow cytometric analysis. In kind it is functional, organism-based. For orientation: A flow cytometer gives signals particle by particle.
Assay [2] has as its target T1, Proteasome Macropain subunit MB1 (Homo sapiens) (UniProt P28074).
T1 sequence (whole entry): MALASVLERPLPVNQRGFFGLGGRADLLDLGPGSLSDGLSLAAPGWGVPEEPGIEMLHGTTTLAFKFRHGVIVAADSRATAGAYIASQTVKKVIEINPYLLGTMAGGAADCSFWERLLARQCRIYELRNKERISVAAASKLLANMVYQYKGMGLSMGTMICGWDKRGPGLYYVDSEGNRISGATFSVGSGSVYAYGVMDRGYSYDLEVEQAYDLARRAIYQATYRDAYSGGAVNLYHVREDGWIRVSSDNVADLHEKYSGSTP
The assay can be described thus: Ratio of test compound IC50 to MG132 IC50 for chymotrypsin like activity of 26S proteasome beta 5 subunit (unknown origin) by fluorescence assay.

The nature of assay [3]: Selectivity ratio of IC50 for chymotrypsin like activity of rabbit 20S proteasome beta 5 to IC50 for recombinant ovine lung calpain 2 protease.
Assay [4] in a line: Inhibition of chymotrypsin like activity of rabbit 20S proteasome beta 5 subunit using Suc-LLVY-AMC as substrate preincubated for 15 mins followed by substrate addition and measured after 2 hrs by fluorescence assay. Set-up: species or system Oryctolagus cuniculus.
For assay [5], the target named is T2, Proteasome Macropain subunit MB1 (Homo sapiens, UniProt P28074).
T2 sequence (P28074 whole entry): T1 sequence (whole entry)
The assay can be described thus: Inhibition of chymotrypsin like activity of 26S proteasome beta 5 subunit (unknown origin) by fluorescence assay.

Assay [6] in a line: Inhibition of recombinant ovine lung calpain-2 protease using BODIPY-FL casein as substrate measured at 30 secs time interval for 30 mins by fluorescence-based assay. Set-up: species or system Ovis aries.
In assay [7] the target is T3, Calpain-2 catalytic subunit (Sus scrofa, UniProt P43367).
T3 sequence (P43367 whole entry): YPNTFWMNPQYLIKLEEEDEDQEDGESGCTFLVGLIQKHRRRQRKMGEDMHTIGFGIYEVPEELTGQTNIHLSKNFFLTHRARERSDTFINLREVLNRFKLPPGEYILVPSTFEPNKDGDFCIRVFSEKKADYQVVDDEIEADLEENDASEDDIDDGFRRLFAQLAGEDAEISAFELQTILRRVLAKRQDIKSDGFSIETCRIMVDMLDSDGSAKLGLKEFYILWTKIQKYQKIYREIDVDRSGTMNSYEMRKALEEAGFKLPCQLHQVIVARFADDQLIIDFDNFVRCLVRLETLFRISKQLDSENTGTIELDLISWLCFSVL
The assay can be described thus: Inhibition of recombinant porcine calpain 2 protease using BODIPY-FL casein as substrate measured at 30 secs time interval for 30 mins by fluorescence-based assay.

Assay [8] is described as follows: Inhibition of recombinant ovine lung calpain-1 protease using BODIPY-FL casein as substrate measured at 30 secs time interval for 30 mins by fluorescence-based assay. Set-up: species or system Ovis aries.
Assay [9] is described as follows: Selectivity ratio of IC50 for chymotrypsin like activity of 26S proteasome beta 5 subunit (unknown origin) to IC50 for recombinant ovine lung calpain 2 protease.
The species entered for a further assay is Ovis aries. Description: Potency index, ratio of MG132 IC50 to test compound IC50 for recombinant ovine lung calpain-2 protease using BODIPY-FL casein as substrate measured at 30 secs time interval for 30 mins by fluorescence-based assay.

Residues, ends and D or L forms follow the SMILES beside them. *: point of attachment. Cbz = O=C(OCc1ccccc1)*

Regarding `C#CCOc1ccc(C[C@@H](C=O)NC(=O)[C@H](CC(C)C)NC(=O)[C@H](CCCCN=[N+]=[N-])NC(=O)OCc2ccccc2)cc1`, the IC50 was found to be 1030 nM in assay [1], 561 nM with Plasmodium falciparum and 150 nM in assay [4]. The results for the Ratio IC50 in assay [2] and in assay [3] were 16 to 428 and 0.15, respectively.

As to `CC(C)C[C@H](NC(=O)OCc1ccccc1)C(=O)N[C@@H](CC(C)C)C(=O)N[C@@H](CC(C)C)C(=O)[C@@]1(C)CO1`, the 50% inhibitory concentration (IC50) came to 220 nM in [5]; 6130 nM in the assay with Plasmodium falciparum; 4400 nM in assay [6]; 4200 nM in [7]; 9800 nM in assay [8]. The Ratio IC50 in assay [2] is 16 to 428; in assay [9], 0.05.

On to `C#CCOc1ccc(C[C@@H](C=O)NC(=O)[C@@H](NC(=O)[C@H](CCCCN=[N+]=[N-])NC(=O)OCc2ccccc2)[C@@H](C)CC)cc1`, for which the half-maximal inhibitory concentration (IC50) in assay [1] is 390 nM; in the assay on Plasmodium falciparum, 146 nM; in assay [4], 20 nM. Also, the Ratio IC50 in assay [2] was 16 to 428; in [3], 0.05.

Regarding `C#CCOc1ccc(C[C@@H](C=O)NC(=O)[C@H](CC(C)C)NC(=O)[C@H](Cc2ccccc2)NC(=O)OCc2ccccc2)cc1`, the IC50 in assay [5] was found to be 189 nM; in the assay with Plasmodium falciparum, 250 nM; in [6], 13 nM; in [7], 34 nM; in assay [8], 81 nM. For the same molecule, the Ratio IC50 in assay [2] is 16 to 428; in the assay filed under Ovis aries, greater than 3; in [9], 14.

Consider `CC(C)C[C@@H](C=O)NC(=O)[C@H](CO)NC(=O)[C@H](CC(C)C)NC(=O)OCc1ccccc1` (Cbz-Leu-Ser-Leu-aldehyde), for which the half-inhibitory concentration (IC50) in assay [5] is 269 nM; in the assay with Plasmodium falciparum it was 213 nM; in assay [6], 99 nM; in assay [7], 160 nM; in [8] it was 40 nM. Further, the results for the Ratio IC50 (in assay [2]; in the assay listed under Ovis aries; in [9]) were 16 to 428, greater than 3 and 2.7, respectively.

As to `CC(C)C[C@@H](C=O)NC(=O)[C@H](CC(C)C)NC(=O)[C@H](Cc1ccccc1)NC(=O)OCc1ccccc1` (Cbz-Phe-Leu-Leu-aldehyde), the IC50 came out at 139 nM in assay [5]; 62 nM in the assay with Plasmodium falciparum; 11 nM in assay [6]; 6 nM in assay [7]; 8 nM in [8]. For the same molecule, the results for the Ratio IC50 (in assay [2]; in the assay filed under Ovis aries; in assay [9]) were 16 to 428, greater than 3 and 13, respectively.

As to `CC(C)C[C@H](NC(=O)[C@H](Cc1ccccc1)NC(=O)OCc1ccccc1)C(=O)N[C@H](C=O)Cc1ccccc1` (Cbz-Phe-Leu-Phe-aldehyde), the half-inhibitory concentration (IC50) in assay [5] stood at 514 nM; in the assay on Plasmodium falciparum, 191 nM; in assay [6], 6 nM; in assay [7] it was 27 nM; in [8] it was 51 nM. In addition, the Ratio IC50 was 16 to 428 in [2], greater than 3 in the assay listed under Ovis aries and 86 in assay [9].

For `CC(C)C[C@@H](C=O)NC(=O)[C@H](CC(C)C)NC(=O)[C@H](CC(C)C)NC(=O)OCc1ccccc1` [MG-132] (Cbz-Leu-Leu-Leu-aldehyde), the 50% inhibitory concentration (IC50) worked out at 35 nM in the assay on Plasmodium falciparum, 311 nM in assay [6] and 120 nM in assay [8].
